This is an account of results in ChEMBL document CHEMBL1134082, “Effect of zinc ion on the inhibition of carboxypeptidase A by imidazole-bearing substrate analogues” (Bioorg Med Chem Lett, 2001).

For experiment [1], the target named is T1, Carboxypeptidase A1 (Bos taurus) (UniProt P00730).
T1 sequence (whole entry): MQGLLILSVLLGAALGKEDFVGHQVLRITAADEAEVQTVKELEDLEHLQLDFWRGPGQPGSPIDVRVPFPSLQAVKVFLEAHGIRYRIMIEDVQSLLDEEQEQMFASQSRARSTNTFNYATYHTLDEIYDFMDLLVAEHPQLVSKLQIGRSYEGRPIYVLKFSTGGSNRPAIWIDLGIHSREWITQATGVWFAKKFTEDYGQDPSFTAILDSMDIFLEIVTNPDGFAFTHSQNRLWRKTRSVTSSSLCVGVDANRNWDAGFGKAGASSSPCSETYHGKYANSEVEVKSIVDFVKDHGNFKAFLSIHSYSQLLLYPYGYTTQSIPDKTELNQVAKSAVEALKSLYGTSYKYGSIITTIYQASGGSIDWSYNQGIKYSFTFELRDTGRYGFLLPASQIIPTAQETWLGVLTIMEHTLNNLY
As to the kind of experiment: Cooperative effect of the inhibitory zinc ion in the inhibition of CPA by the compound.

The nature of experiment [2]: Extent of enhancement of inhibitory potency of compound against carboxypeptidase A caused by zinc ion.
The target in experiment [3] is T1, Carboxypeptidase A1 (Bos taurus). Description: Apparent inhibitory constant of carboxypeptidase A (CPA) in presence of Zinc ion.
The target in experiment [4] is T2, Carboxypeptidase A1 (Bos taurus, UniProt P00730).
T2 sequence (P00730 whole entry): T1 sequence (whole entry)
Description: Inhibitory constant of carboxypeptidase A (CPA) in absence of Zinc ion.

Each structure is given as a SMILES string.

In experiment [1], `O=C(O)C(CCCc1c[nH]cn1)Cc1ccccc1` (stereo unspecified) showed a Cooperative effect of 0.024. For the same molecule, the Ki/K'i in experiment [2] was determined as 41.7. Besides, the K'i in experiment [3] amounted to 18 µM.

The molecule `O=C(O)C(Cc1ccccc1)Cc1c[nH]cn1` (stereo unspecified) displayed a Cooperative effect in experiment [1] of 0.0047. For the same molecule, the Ki/K'i in experiment [2] amounted to 212. Also, in experiment [3], the K'i came to 1.01 µM. The Ki (commonly a measure of affinity in units of concentration, obtained from inhibition or displacement) in experiment [4] worked out at 214 µM.

`O=C(O)C(CCc1c[nH]cn1)Cc1ccccc1` (stereo unspecified): in experiment [1], the Cooperative effect was found to be 0.0056. Moreover, the Ki/K'i in experiment [2] worked out at 51.7. Besides, in experiment [3], the K'i turned out to be 0.29 µM. The molecule further had a Ki in experiment [4] of 15 µM.

`O=C(O)C(Cc1ccccc1)c1cnc[nH]1` (stereo unspecified): affinity in experiment [4] was put at a Ki of 0.26 µM.

Molecule `O=C(O)C(CCCc1cnc[nH]1)Cc1ccccc1` (stereo unspecified) gave a Ki in experiment [4] of 750 µM.

Take `O=C(O)C(Cc1ccccc1)c1c[nH]cn1` (stereo unspecified): in experiment [1], the Cooperative effect was determined as 1.88. In experiment [2], the Ki/K'i amounted to 0.53. Further, in experiment [3], the K'i was determined as 0.49 µM.
